Assay results reported in ChEMBL document CHEMBL1914297, “Regulators of G protein signaling (RGS) proteins as drug targets: modulating G-protein-coupled receptor (GPCR) signal transduction” (J Med Chem, 2011).
Where a SMILES comes first, the peptide text is derived from it. Bridges are numbered along the chain shown (N, C = ends).

Legend:
[1] = Selectivity for RGS4 over RGS8
[2] = Selectivity for RGS4 over RGS16
[3] = species: Homo sapiens; test: Selectivity ratio of IC50 for human RGS4 expressed in Escherichia coli BL21 (DE3) to IC50 for human RGS8 expressed in Escherichia coli BL21 (DE3)
[4] = species: Homo sapiens; test: Selectivity ratio of IC50 for human RGS4 expressed in Escherichia coli BL21 (DE3) to IC50 for human RGS16 expressed in Escherichia coli BL21 (DE3)
[5] = target: Regulator of G-protein signaling 4 (Homo sapiens) (UniProt P49798); test: Inhibition of RGS4 GTPase accelrating activity
Chain of Regulator of G-protein signaling 4 (Homo sapiens) (P49798 whole entry, looked up): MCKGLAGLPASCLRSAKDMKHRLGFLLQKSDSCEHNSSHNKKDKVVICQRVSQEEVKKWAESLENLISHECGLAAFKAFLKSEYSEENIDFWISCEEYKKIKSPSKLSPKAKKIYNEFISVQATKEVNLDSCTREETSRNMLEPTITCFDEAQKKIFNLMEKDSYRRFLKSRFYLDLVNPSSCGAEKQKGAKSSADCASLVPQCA

Compound | Selectivity ratio [1] | Selectivity ratio [2] | Ratio IC50 [3] | Ratio IC50 [4] | INH [5] [µM]
Cc1ccc(-n2sc(=O)n(Cc3ccc(F)cc3)c2=O)cc1 | 100 | 100 | – | – | –
Cc1cccn2c(=O)c(/C=C(\C#N)c3nc4ccccc4s3)c(Oc3ccc(F)cc3)nc12 | – | – | 10 | 10 | –
CC[C@H](C)[C@@H]1NC(=O)CNC(=O)[C@H]([C@@H](C)O)NC(=O)[C@@H](NC(=O)[C@H](CCCCN)NC(=O)[C@@H](NC(C)=O)C(C)C)CSSC[C@@H](C(=O)N[C@@H](CCC(=O)O)C(N)=O)NC1=O (Ac-VKCTGICE-NH2; disulfide 3-7) | – | – | – | – | 26
Cc1cccc(Oc2nc3c(C)cccn3c(=O)c2/C=C(\C#N)c2nc3ccccc3s2)c1 | – | – | 10 | 10 | –
